# Experimental data published in patent US9303042B2, “Triazolothienopyrimidine compound inhibitors of urea transporters and methods of using inhibitors” (The Regents of the University of California, priority 2012, dated 2016).
# Legend:
# mice = assay: Urinary concentration in mice; type: in vivo, mouse; details: 400 μg intraperitoneal, dDAVP 1 h later, vs formulation alone
# Description: In some studies, mice were placed on low, normal or […] diets (4%, 20% or 40% casein, Harlan Labs.) for 1 week prior study of dDAVP effects. […] Urea concentration was determined by a colorimetric enzymatic assay as described above. Measurements were also done in the absence of dDAVP in which urine was collected during free access to food and water. […]
# [1] = In vitro metabolic stability in hepatic microsomes; type: in vitro ADME, rat
# Description: Compounds, each at 5 μM, were incubated for specified times at 37° C. with rat liver microsomes (1 mg protein/ml; Sigma-Aldrich, St. Louis, Mo.) in potassium phosphate buffer (100 mM) containing 1 mM NADPH. The mixture was then chilled on ice, and 0.5 ml of ice-cold ethyl acetate was added.
# [2] = LC/MS analysis of compound in mouse kidney, blood and urine; details: for many hours after intraperitoneal bolus 400 μg
# Description: In some studies, mice were placed on low, normal or […] diets (4%, 20% or 40% casein, Harlan Labs.) for 1 week prior study of dDAVP effects. […] Urea concentration was determined by a colorimetric enzymatic assay as described above. Measurements were also done in the absence of dDAVP in which urine was collected during free access to food and water.
# Kidneys were weighed, mixed with acetic acid (100 μL per 1 g tissue) and ethyl acetate (10 mL per 1 g tissue), and homogenized.
# CFTR = target: T1, CFTR (Homo sapiens, UniProt P13569); assay: CFTR chloride conductance by short-circuit current; type: cell-based; details: 20 μM
# T1 construct: expressed in transfected cells
# TMEM16A = target: T2, TMEM16A (Homo sapiens, UniProt Q5XXA6); assay: TMEM16A calcium-activated chloride conductance by short-circuit current; type: cell-based; details: 100 μM
# T2 construct: expressed in transfected cells
# T2 sequence (Q5XXA6 1-986): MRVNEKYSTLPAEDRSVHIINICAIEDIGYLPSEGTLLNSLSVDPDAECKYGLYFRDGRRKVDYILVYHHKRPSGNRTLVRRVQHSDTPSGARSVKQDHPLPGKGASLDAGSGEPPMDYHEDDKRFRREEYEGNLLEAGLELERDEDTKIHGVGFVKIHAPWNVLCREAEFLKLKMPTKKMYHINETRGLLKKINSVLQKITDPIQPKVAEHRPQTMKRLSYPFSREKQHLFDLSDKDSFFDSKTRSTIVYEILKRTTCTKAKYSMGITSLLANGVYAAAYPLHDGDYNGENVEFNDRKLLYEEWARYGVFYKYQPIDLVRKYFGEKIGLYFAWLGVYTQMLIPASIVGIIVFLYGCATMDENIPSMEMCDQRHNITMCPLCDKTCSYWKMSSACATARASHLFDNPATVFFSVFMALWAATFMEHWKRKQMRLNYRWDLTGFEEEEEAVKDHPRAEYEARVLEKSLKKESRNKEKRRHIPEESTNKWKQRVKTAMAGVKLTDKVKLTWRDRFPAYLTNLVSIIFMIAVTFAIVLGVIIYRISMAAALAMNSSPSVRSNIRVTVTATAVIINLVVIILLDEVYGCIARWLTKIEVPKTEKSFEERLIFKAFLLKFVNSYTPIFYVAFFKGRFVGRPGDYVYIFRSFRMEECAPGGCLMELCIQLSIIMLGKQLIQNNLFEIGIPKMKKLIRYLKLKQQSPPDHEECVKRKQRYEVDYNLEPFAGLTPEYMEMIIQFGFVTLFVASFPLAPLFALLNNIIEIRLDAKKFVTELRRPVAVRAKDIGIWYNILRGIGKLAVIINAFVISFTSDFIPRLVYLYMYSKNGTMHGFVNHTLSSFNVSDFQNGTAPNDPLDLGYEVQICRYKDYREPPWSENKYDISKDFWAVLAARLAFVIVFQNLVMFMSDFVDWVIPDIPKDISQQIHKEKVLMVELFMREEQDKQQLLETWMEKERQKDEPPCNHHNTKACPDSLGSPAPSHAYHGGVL
# Description: CFTR chloride conductance was measured by short-circuit current analysis in Fisher rat thyroid (FRT) cells stably expressing CFTR, as described (see, e.g., Ma et al., J. Biol. Chem. (2002), supra). CFTR chloride conductance was stimulated by forskolin and inhibited by a thiazolidinone compound that inhibits CFTR (CFTRinh-172). TMEM16A calcium-activated chloride conductance was measured by short-circuit current analysis in FRT cells stably expressing TMEM16A, as described (see, e.g., Namkung et al., J. Biol. Chem. 286:2365-2374, 2011. TMEM16A was stimulated by ATP and inhibited by tannic acid (100 μM). Cytotoxicity was measured in MDCK using the MTT assay [3(4,5-dimethyl-thiazol-2-yl)-2,5-diphenyl tetrazolium bromide] by standard procedures.
# UT-A3 = target: T3, UT-A3 (Mus musculus, UniProt Q8R4T9); assay: Transepithelial urea transport in MDCK cells stably expressing UT-A3; type: cell-based; details: phloretin 100 μM
# T3 construct: expressed in transfected cells
# T3 sequence (Q8R4T9 1-461 isoform Q8R4T9-3): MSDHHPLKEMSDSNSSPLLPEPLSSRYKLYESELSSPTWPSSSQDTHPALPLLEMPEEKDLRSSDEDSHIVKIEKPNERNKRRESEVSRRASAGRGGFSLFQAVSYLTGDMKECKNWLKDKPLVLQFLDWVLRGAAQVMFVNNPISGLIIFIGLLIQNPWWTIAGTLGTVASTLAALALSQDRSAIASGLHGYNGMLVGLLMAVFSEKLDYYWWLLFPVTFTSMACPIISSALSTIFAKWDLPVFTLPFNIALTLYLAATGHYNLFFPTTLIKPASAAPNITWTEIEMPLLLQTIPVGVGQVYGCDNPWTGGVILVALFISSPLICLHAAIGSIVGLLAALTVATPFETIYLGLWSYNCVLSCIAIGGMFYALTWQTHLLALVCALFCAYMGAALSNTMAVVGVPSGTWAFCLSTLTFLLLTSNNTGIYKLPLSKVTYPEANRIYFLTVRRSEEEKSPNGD
# Description: (§1) UT-B selectivity and cytotoxicity were studied. Because of sequence similarities between UT-B and UT-A isoforms, UT-A inhibition was measured. Transepithelial urea transport was measured in MDCK cells stably expressing UT-A1, UT-A3, and UT-B. UT-A1 and UT-A3 are cAMP-regulated urea transporters expressed in kidney tubule epithelia (see, e.g., Frohlich et al., Am. J. Physiol. Cell Physiol. 291:C600-606 (2006); Tickle et al., Am. J. Physiol. Regul. Integr. Comp Physiol 0.297: R323-329 (2009); Stewart et al., Am. J. Physiol. Renal Physiol. 292:F1157-63 (2006)). MDCK cells were cultured on collagen-coated porous filters for measurement of urea accumulation in the apical solution following addition of urea to the basolateral solution.
# (§2) cDNAs encoding mouse UT-A3 and UT-B were cloned into pcDNA3.1 and used to generate stably transfected MDCK cell lines. MDCK cells stably expressing rat UT-A1 (MDCK-UT-A1) (see, e.g., Frohlich et al., supra) were obtained as described (see, e.g., Levin et al., FASEB J., supra). Cells were cultured in DMEM containing 10% FBS and 0.5 mg/mL G418. […] Urea flux in the basolateral-to-apical direction across unstimulated and forskolin-stimulated cell layers was measured in response to a 15-mM urea gradient. […]
# UT-B = target: T4, UT-B (Mus musculus, UniProt Q8VHL0); assay: Transepithelial urea transport in MDCK cells stably expressing UT-B; type: cell-based; details: phloretin 100 μM
# T4 sequence (Q8VHL0 1-384): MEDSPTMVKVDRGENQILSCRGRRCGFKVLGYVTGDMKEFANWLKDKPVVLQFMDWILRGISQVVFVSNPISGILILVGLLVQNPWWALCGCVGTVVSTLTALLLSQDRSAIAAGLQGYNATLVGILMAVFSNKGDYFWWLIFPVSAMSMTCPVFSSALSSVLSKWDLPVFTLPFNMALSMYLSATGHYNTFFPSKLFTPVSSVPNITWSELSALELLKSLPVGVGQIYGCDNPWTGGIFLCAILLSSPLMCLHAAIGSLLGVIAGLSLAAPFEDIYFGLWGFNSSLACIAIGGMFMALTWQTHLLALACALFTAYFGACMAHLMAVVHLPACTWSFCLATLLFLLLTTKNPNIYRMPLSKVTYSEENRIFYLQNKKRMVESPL
# Description: as §1, §2
# UT = details: literature; cited from earlier work
# UT-A1 = target: T5, UT-A1 (Rattus norvegicus, UniProt Q62668); assay: Transepithelial urea transport in MDCK cells stably expressing UT-A1; type: cell-based; details: phloretin 100 μM
# T5 construct: expressed in transfected cells; host or cells: MDCK cells (MDCK-UT-A1), obtained as described in cited literature
# T5 sequence (Q62668 1-929): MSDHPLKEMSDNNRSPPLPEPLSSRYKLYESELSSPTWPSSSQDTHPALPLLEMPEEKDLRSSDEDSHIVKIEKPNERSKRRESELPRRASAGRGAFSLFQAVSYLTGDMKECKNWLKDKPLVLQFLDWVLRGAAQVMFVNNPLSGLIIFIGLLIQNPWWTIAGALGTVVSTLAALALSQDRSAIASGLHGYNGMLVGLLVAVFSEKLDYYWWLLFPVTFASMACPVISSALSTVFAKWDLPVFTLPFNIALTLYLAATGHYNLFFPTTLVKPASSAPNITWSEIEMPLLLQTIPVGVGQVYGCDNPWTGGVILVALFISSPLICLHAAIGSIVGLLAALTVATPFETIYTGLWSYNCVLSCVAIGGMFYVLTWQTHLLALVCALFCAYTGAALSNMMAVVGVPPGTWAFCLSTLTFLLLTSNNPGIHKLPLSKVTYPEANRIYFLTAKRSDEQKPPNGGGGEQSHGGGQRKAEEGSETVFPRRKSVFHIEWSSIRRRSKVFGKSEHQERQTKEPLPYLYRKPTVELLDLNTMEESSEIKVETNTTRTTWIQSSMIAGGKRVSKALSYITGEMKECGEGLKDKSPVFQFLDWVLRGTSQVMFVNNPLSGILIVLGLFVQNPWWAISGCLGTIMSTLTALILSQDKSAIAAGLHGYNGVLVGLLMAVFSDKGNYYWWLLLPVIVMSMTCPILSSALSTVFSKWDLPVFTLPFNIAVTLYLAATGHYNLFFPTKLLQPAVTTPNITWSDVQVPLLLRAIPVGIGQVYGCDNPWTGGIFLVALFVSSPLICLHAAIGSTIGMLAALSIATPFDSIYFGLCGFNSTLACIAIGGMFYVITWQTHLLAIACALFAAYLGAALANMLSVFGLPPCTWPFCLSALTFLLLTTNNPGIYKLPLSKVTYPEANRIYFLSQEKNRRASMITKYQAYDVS
# Description: as §1, §2
# T1 sequence (P13569 whole entry): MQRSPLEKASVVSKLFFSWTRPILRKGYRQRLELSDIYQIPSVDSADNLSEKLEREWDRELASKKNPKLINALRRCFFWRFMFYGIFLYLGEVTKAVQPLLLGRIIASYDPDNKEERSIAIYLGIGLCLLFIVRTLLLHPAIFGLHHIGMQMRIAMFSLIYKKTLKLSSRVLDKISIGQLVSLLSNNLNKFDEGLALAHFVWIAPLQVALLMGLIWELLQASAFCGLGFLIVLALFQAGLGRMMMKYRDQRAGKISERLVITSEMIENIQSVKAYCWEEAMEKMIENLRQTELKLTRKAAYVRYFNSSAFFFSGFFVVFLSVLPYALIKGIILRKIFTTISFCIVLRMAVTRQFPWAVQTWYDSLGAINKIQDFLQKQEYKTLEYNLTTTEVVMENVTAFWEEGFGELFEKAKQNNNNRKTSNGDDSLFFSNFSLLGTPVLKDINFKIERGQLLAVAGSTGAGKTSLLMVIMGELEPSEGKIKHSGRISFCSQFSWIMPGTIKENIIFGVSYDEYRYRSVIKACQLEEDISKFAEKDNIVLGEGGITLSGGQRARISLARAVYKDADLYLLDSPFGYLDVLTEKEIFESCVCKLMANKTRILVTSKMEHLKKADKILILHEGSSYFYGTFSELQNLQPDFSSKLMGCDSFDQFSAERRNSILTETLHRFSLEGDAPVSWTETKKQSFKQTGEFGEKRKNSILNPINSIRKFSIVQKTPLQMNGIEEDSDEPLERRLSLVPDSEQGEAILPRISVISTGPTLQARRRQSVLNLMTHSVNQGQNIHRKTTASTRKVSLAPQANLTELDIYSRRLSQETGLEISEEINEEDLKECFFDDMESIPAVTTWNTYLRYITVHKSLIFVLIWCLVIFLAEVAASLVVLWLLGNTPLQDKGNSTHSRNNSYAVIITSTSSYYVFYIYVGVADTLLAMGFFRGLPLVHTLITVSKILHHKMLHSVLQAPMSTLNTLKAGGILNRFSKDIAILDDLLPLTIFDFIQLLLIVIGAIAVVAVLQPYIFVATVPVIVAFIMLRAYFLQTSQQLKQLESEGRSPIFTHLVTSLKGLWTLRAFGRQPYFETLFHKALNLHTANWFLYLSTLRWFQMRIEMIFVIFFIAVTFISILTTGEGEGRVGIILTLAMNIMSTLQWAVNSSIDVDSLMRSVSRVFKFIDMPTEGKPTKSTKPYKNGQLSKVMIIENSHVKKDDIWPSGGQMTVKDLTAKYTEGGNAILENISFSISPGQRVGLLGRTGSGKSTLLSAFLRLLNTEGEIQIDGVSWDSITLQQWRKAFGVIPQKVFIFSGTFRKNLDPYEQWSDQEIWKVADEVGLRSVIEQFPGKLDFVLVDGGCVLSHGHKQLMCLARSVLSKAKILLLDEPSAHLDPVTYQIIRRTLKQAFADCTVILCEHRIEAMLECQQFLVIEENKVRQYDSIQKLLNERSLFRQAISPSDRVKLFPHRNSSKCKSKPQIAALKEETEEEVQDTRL
compound,measurement,setting,value
"CC(F)(F)c1ccc(S(=O)(=O)c2nnn3c2nc(NCc2cccs2)c2sccc23)cc1 [Compound 3k, {3-[4-(1,1-Difluoro-ethyl)-benzenesulfonyl]-thieno[2,3-e][1,2,3]triazolo[1,5-a]pyrimidin-5-yl}-thiophen-2-ylmethyl-amine]",reduction of urine osmolality,mice,approximately 0.5 Osm/kg H2O
same,t1/2 for disappearance in hepatic microsomes,"[1]; hepatic microsomes, NADPH",approximately 120 min
same,% Remaining,[1]; parent molecule after 30 min incubation with rat liver microsomes,96%
same,stability in vitro compared to UTBinh 14,[1]; ratio of microsomal t1/2,approximately 40 fold
same,"concentrations in blood, kidney and urine",[2],< 1000 nM
CFTRinh-172 [reference compound],CFTR chloride current,CFTR,blocked
"O=C(OC[C@H]1O[C@@H](OC(=O)c2cc(O)c(O)c(OC(=O)c3cc(O)c(O)c(O)c3)c2)[C@H](OC(=O)c2cc(O)c(O)c(OC(=O)c3cc(O)c(O)c(O)c3)c2)[C@@H](OC(=O)c2cc(O)c(O)c(OC(=O)c3cc(O)c(O)c(O)c3)c2)[C@@H]1OC(=O)c1cc(O)c(O)c(OC(=O)c2cc(O)c(O)c(O)c2)c1)c1cc(O)c(O)c(OC(=O)c2cc(O)c(O)c(O)c2)c1 [tannic acid, reference compound]",ATP-induced current (TMEM16A),TMEM16A,blocked
"O=C(CCc1ccc(O)cc1)c1c(O)cc(O)cc1O [phloretin, reference compound]",UT-facilitated urea transport (UT-A3),UT-A3,inhibited
same,UT-facilitated urea transport (UT-B),UT-B,inhibited
same,concentration exhibiting activity,UT,> 0.5 mM
same,UT-facilitated urea transport (UT-A1),UT-A1,inhibited
